Results as given in the METLIN SMRT retention time set (Domingo-Almenara et al. 2019).

assay: gradient 5% acetonitrile 3 min, to 50% in 2 min, to 85% in 15 min, held 3 min, 100 µL/min; conditions: column: Zorbax Extend-C18 2.1 x 50 mm; eluents: water / acetonitrile, 0.1% formic acid
Procedure, shortened: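 Retention time was recorded from adduct peaks, which were picked computationally and each inspected manually. Pure standards ran in mixtures of ~100 molecules on HPLC coupled to a quadrupole time-of-flight mass spectrometer, in positive and negative ionization mode, through a Zorbax Extend-C18 column (2.1 × 50 mm, 1.8 μm) at 100 μL/min. Eluents were water and acetonitrile, each with 0.1% formic acid.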

Going from Cc1ccc(Sc2nccnc2N2CCCC(C(=O)NCc3ccc(N(C)C)cc3)C2)cc1 (configuration not stated) to CN(C)c1cccc(C(=O)N2CCCC2c2nc(-c3ccc(F)cc3)no2)c1 (configuration not stated), the RP-LC retention time rises from 837 s to 985 s.

Compared with COc1ccc(C(=O)Nc2nc3c(s2)CCCC3C(=O)NCCC2=CCCCC2)cc1 (configuration not stated), COc1ccc(NC(=O)Cc2csc(NC(=O)c3ccc(=O)[nH]c3)n2)cc1Cl is lower in RP-LC retention time: 1040 s for the first, 637 s for the second.

First: O=C(NCc1nc2ccccc2n1CC(=O)N1CCCCCC1)c1ccco1
Second: COc1ccc(Cc2nc3ccccc3n2CC(N)=O)cc1OC
The RP-LC retention time of the first is higher: 627 s for the first, 566 s for the second.

First: COc1ccc(NC(=O)NCCc2ccsc2)cc1
Second: CC(C)(C)c1ccc(NC(=O)N2CCN(CCNC(=O)c3cccs3)CC2)cc1
The RP-LC retention time of the first is higher: 729 s for the first, 616 s for the second.

Compared with CC(C)NC(=O)c1ccc2c(c1)ncn2CCNC(=O)Nc1ccc(Br)cc1F, CC(=O)Nc1cc(C(=O)NC(C)c2ccccc2)c2ccc(C)nc2c1 (configuration not stated) is higher in RP-LC retention time: 651 s for the first, 1030 s for the second.

Going from Cc1ccc(C)c(-c2coc(-c3ccc(NC(=O)C(C)C)cc3)n2)c1 to COc1ccc(-c2cn3c(CC(=O)Nc4ccc(Cl)cc4)csc3n2)cc1OC, the RP-LC retention time falls from 1170 s to 799 s.

First: CCOc1ccc(-c2noc(CN3N=NC4C(=O)N(c5ccc(C(C)C)cc5)C(=O)C43)n2)cc1OC (configuration not stated)
Second: COc1ccc(NC(=O)N2CC=C(c3cn(C(C)C)c4ncccc34)CC2)cc1OC
The RP-LC retention time of the first is higher: 1060 s for the first, 826 s for the second.

Compared with CC1CCN(C(=O)c2cc3c(s2)CCC(C(=O)Nc2ccc4c(c2)OCCO4)C3)CC1 (configuration not stated), Cc1nn(Cc2ccc(C(=O)NC3CC3)cc2)c(C)c1S(=O)(=O)N1CCC(C)CC1 is lower in RP-LC retention time: 947 s for the first, 859 s for the second.

First: CCN(CC)c1nc2ccsc2c(=O)n1CCC(=O)NCc1ccc(F)cc1F
Second: CN1c2cc(C(=O)NCc3ccc(F)cc3F)ccc2C(=O)N2CCCCC21 (configuration not stated)
The RP-LC retention time of the first is higher: 848 s for the first, 813 s for the second.

Compared with CN(C)c1ccc(/C=C2\CCc3ccccc3C2=O)cc1Br, COc1ccc(OC)c(NC(=O)NC2CCN(c3ccccc3)C2=O)c1 (configuration not stated) is lower in RP-LC retention time: 1260 s for the first, 788 s for the second.

Compared with O=S(=O)(Cc1ccccc1)N1CCCCC1c1nc(-c2cccnc2)n[nH]1 (configuration not stated), CCS(=O)(=O)N1CC(=O)N(c2ccc(C)c(Cl)c2)C(C)(C(=O)NCc2ccccc2)C1 (configuration not stated) is higher in RP-LC retention time: 701 s for the first, 919 s for the second.

First: Cc1cc(NC(=O)N2CCCC(C)(C(=O)NCc3ccc(F)cc3)C2)ccc1Br (configuration not stated)
Second: CC(C)n1cnc(S(=O)(=O)N2CCCC(C(=O)Nc3ccc(F)cc3)C2)c1 (configuration not stated)
The RP-LC retention time of the first is higher: 1050 s for the first, 765 s for the second.

Compared with Cc1ccc(Nc2c(-c3ccccc3O)nc3ccc(Br)cn23)cc1, Cc1ccn2cc(-c3ccc(C)c(NS(=O)(=O)c4ccc(Cl)cc4)c3)nc2c1 is lower in RP-LC retention time: 1070 s for the first, 698 s for the second.

Compared with COc1ccc(OC)c(NC(=O)Cn2nc3n(c2=O)CCCCC3)c1, COc1ccc(-c2nc3ncccn3c2NC2CCCCCC2)cc1OC is higher in RP-LC retention time: 715 s for the first, 756 s for the second.

Compared with CCc1ccccc1NC(=O)Cn1ccc2sccc2c1=O, O=C(CCc1c(-c2ccc(F)cc2)nc2ccccn12)NC1CC1 is lower in RP-LC retention time: 742 s for the first, 587 s for the second.

First: Cn1nc(C(=O)N2CCCCC2)c2c1CCN(C(=O)CCC(=O)NC1CCCC1)C2
Second: CCOC(=O)c1c(S(=O)(=O)N2CCC(C(=O)N3CCc4ccccc4C3)CC2)c(C)n(C)c1C
The RP-LC retention time of the first is lower: 666 s for the first, 872 s for the second.

First: Fc1cccc(-c2nc3ncccn3c2NC2CCCCC2)c1
Second: Cc1cccnc1NC(=O)C1CCN(S(=O)(=O)c2ccc3c(c2)sc(=O)n3C(C)C)CC1
The RP-LC retention time of the first is lower: 834 s for the first, 844 s for the second.

Going from COC1CCC12CCN(C(=O)C1CC1)CC2 (configuration not stated) to CN1C(=O)NC2(CCN(S(=O)(=O)c3cccs3)CC2)C1=O, the RP-LC retention time falls from 710 s to 640 s.

Work on O=C(OCc1cc(-c2cccs2)on1)c1ncc(-c2ccccc2)o1 yielded an RP-LC retention time of 1060 s.
